Where a SMILES comes first, the peptide text is derived from it. Where no end group is shown, it is not given here. [ ]: non-standard residue; d: D form. The star is where a group is joined. Desaminotyrosyl = O=C(CCc1ccc(O)cc1)*
Tested on: rat pituitary cells
Assay type: cell-based
Protocol: The biological activity of the novel peptides were compared with that of a synthetic standard of the natural sequence of GRF(1-44)-NH2 (SEQ ID NO: 1-NH2) which was isolated from a human pancreatic tumor of an individual suffering from acromegaly (Salk Institute standard hp-GRF-NH2 (NL-A-10)). The assay for biological activity, which is based on the ability to stimulate production of growth hormone in rat pituitary cells in tissue culture, was performed in the following manner. Pituitaries from 30-40 male Sprague-Dawley rats (175 g) were removed aseptically after decapitation. The anterior lobes were collected, washed 3 times in sterile Hepes buffer (0.025M)(pH 7.35) and dispersed at 37° C. in 20-30 ml Hepes buffer (pH 7.35) containing collagenase (4 mg per ml) and Dispase (Protease grande II, 2 mg per ml). After gentle 80 min. vortexing and trituration by Pasteur pipette, the dispersed cells were separated by centrifugation (150×g, 4 min.) and re-suspended in Hepes buffer containing neuraminidase (4 mg/ml), and […] ethylenediaminetetraacetic acid (EDTA) disodium salt pH 7.35, for 10 min. The cells were washed twice with plating medium and plated on multiwell-plates (1.5×10^5 cells per ml) using the following defined medium: F-12/DMEM/BGJ(6:3:1) (Gibco: 430-1700/430-1600/320-2591) with 2 g BSA/L., 2.38 g Hepes/L.,50 mg Gentamycin/L (Schering Co.). The medium in each well was supplemented either with the novel peptide or natural GRF(1-44)-NH2 (SEQ ID NO: 1-NH2) at concentrations ranging from 3.1 to 200 fmol. per ml. of medium. Control wells contained no supplement. Plating was done with this medium added with 2% fetal calf serum to ensure rapid fixation of the cells. On the fourth day the cells were washed twice with the defined medium without fetal calf serum. Finally […] of defined medium was added to each well plus […] of the same medium containing each individual treatment, in triplicate. After 3 hours of incubation the medium was collected and diluted as required to conduct radioimmunoassay (RIA) for rat growth hormone. RIAs were conducted using Sinha's anti-murine GH immune serum and procedures according to the National Pituitary Agency using protein A to precipitate antibody antigen complex.

## CC[C@H](C)[C@H](NC(=O)[C@H](C)NC(=O)[C@H](CC(=O)O)NC(=O)[C@@H](C)NC(=O)[C@@H](N)Cc1c[nH]cn1)C(=O)N[C@@H](Cc1ccccc1)C(=O)N[C@H](C(=O)N[C@@H](CCC(N)=O)C(=O)N[C@@H](CO)C(=O)N[C@@H](Cc1ccc(O)cc1)C(=O)N[C@@H](CCCNC(=N)N)C(=O)N[C@@H](CCCCN)C(=O)N[C@H](C(=O)N[C@@H](CC(C)C)C(=O)N[C@@H](C)C(=O)N[C@@H](CCC(N)=O)C(=O)N[C@@H](CC(C)C)C(=O)N[C@@H](CO)C(=O)N[C@@H](C)C(=O)N[C@@H](CCCNC(=N)N)C(=O)N[C@@H](CCCCN)C(=O)N[C@@H](CC(C)C)C(=O)N[C@@H](CC(C)C)C(=O)N[C@@H](CCC(N)=O)C(=O)N[C@@H](CC(=O)O)C(=O)N[C@H](C(=O)N[C@@H](CC(C)C)C(=O)N[C@@H](CO)C(=O)N[C@@H](CCCNC(=N)N)C(=O)N[C@@H](CCC(N)=O)C(=O)N[C@@H](CCC(N)=O)C(=O)NCC(=O)O)[C@@H](C)CC)C(C)C)[C@@H](C)O [SEQ ID NO: 17-OH] (H-H[dA]DAIFTQSYRKVLAQLSARKLLQDILSRQQG-OH)
  Potency of GRF Analogs Relative to GRF(1-44)-NH2 (SEQ ID NO: 1-NH2): 3.23

## CC[C@H](C)[C@H](NC(=O)[C@H](C)NC(=O)[C@H](CC(=O)O)NC(=O)[C@H](C)NC(=O)[C@@H](N)Cc1ccc(O)cc1)C(=O)N[C@@H](Cc1ccccc1)C(=O)N[C@H](C(=O)N[C@@H](CC(N)=O)C(=O)N[C@@H](CO)C(=O)N[C@@H](Cc1ccc(O)cc1)C(=O)N[C@@H](CCCNC(=N)N)C(=O)N[C@@H](CCCCN)C(=O)N[C@H](C(=O)N[C@@H](CC(C)C)C(=O)NCC(=O)N[C@@H](CCC(N)=O)C(=O)N[C@@H](CC(C)C)C(=O)N[C@@H](CO)C(=O)N[C@@H](C)C(=O)N[C@@H](CCCNC(=N)N)C(=O)N[C@@H](CCCCN)C(=O)N[C@@H](CC(C)C)C(=O)N[C@@H](CC(C)C)C(=O)N[C@@H](CCC(N)=O)C(=O)N[C@@H](CC(=O)O)C(=O)N[C@H](C(=O)N[C@@H](CCSC)C(=O)N[C@@H](CO)C(=O)N[C@@H](CCCNC(=N)N)C(=O)N[C@@H](CCC(N)=O)C(=O)N[C@@H](CCC(N)=O)C(=O)NCC(=O)N[C@@H](CCC(=O)O)C(=O)N[C@@H](CO)C(=O)N[C@@H](CC(N)=O)C(=O)N[C@@H](CCC(N)=O)C(=O)N[C@@H](CCC(=O)O)C(=O)N[C@@H](CCCNC(=N)N)C(=O)NCC(=O)N[C@@H](C)C(=O)N[C@@H](CCCNC(=N)N)C(=O)N[C@@H](C)C(=O)N[C@@H](CCCNC(=N)N)C(=O)N[C@@H](CC(C)C)C(N)=O)[C@@H](C)CC)C(C)C)[C@@H](C)O [SEQ ID NO: 1-NH2, GRF(1-44)-NH2, reference compound]
  Potency of GRF Analogs Relative to GRF(1-44)-NH2 (SEQ ID NO: 1-NH2): 1.00

## HVDAIFTQSYRKVLAQLSARKLLQDILNRQQG [SEQ ID NO: 14-OH]
  Potency of GRF Analogs Relative to GRF(1-44)-NH2 (SEQ ID NO: 1-NH2): 3.11

## CC[C@H](C)[C@H](NC(=O)[C@H](C)NC(=O)[C@H](CC(=O)O)NC(=O)[C@@H](C)NC(=O)CCc1ccc(O)cc1)C(=O)N[C@@H](Cc1ccccc1)C(=O)N[C@H](C(=O)N[C@@H](CCC(N)=O)C(=O)N[C@@H](CO)C(=O)N[C@@H](Cc1ccc(O)cc1)C(=O)N[C@@H](CCCNC(=N)N)C(=O)N[C@@H](CCCCN)C(=O)N[C@H](C(=O)N[C@@H](CC(C)C)C(=O)N[C@@H](C)C(=O)N[C@@H](CCC(N)=O)C(=O)N[C@@H](CC(C)C)C(=O)N[C@@H](CO)C(=O)N[C@@H](C)C(=O)N[C@@H](CCCNC(=N)N)C(=O)N[C@@H](CCCCN)C(=O)N[C@@H](CC(C)C)C(=O)N[C@@H](CC(C)C)C(=O)N[C@@H](CCC(N)=O)C(=O)N[C@@H](CC(=O)O)C(=O)N[C@H](C(=O)N[C@@H](CC(C)C)C(=O)N[C@@H](CO)C(=O)N[C@@H](CCCNC(=N)N)C(=O)N[C@@H](CCC(N)=O)C(=O)N[C@@H](CCC(N)=O)C(=O)NCC(=O)O)[C@@H](C)CC)C(C)C)[C@@H](C)O [SEQ ID NO: 31-OH] (Desaminotyrosyl-[dA]DAIFTQSYRKVLAQLSARKLLQDILSRQQG-OH)
  Potency of GRF Analogs Relative to GRF(1-44)-NH2 (SEQ ID NO: 1-NH2): 4.20
